Experimental data: ChEMBL document CHEMBL1201862, “PubChem BioAssay data set” (2004)
Active and inactive are the calls of the source.

How the values were obtained:
SUMO E1/E2 = SUMO E1/E2 (Homo sapiens, UniProt P63279+Q9UBE0+Q9UBT2); assay: SAR analysis of SUMOylation using HTRF in an in-Vitro dose response assay. [Related pubchem assays (depositor defined):AID2006, AID2011, AID2018, AID2069, AID2658]; type: functional
[1] = biological target: T1, G-protein coupled receptor 55 (Homo sapiens, UniProt Q9Y2T6); assay: selective activators of receptor GPR55 – imaging, U2OS cells, beta-arrestin-GFP redistribution, primary screen (AID 1961); type: functional
T1 sequence (Q9Y2T6 whole entry): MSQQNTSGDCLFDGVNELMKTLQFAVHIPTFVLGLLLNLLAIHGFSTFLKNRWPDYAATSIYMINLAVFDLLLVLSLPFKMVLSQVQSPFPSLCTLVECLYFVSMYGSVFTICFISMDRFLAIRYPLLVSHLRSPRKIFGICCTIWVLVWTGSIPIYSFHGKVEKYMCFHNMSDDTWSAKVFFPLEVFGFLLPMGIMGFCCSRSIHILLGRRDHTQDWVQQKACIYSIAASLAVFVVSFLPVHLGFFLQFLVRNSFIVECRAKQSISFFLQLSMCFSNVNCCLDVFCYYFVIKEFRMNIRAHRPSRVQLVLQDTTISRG

[2] = biological target: T1, G-protein coupled receptor 55; assay: inhibition of LPI-stimulated GPR55 beta-arrestin translocation – imaging, U2OS, beta-arrestin-GFP, LPI agonist, primary screen (AID 2013); type: functional;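 also: antagonist potency measured as reduced agonist-driven arrestin aggregation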
[3] = biological target: Heat shock protein HSP 90-alpha (Homo sapiens, UniProt P07900); type: functional, organism-based
[4] = biological target: T2, Tyrosine-protein phosphatase non-receptor type 7 (Homo sapiens, UniProt P35236); type: functional
T2 sequence (P35236 whole entry): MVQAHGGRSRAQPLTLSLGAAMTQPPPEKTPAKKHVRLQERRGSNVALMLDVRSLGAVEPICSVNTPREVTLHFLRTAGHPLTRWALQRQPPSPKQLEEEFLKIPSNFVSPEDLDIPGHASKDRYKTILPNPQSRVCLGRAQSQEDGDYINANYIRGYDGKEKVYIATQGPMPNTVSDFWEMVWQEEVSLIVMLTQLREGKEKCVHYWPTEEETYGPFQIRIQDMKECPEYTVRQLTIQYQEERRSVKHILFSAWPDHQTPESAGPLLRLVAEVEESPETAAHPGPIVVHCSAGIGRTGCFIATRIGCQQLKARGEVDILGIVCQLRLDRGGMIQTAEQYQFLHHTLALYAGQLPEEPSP

[5] = biological target: T3, Tyrosine-protein phosphatase non-receptor type 22 (Homo sapiens, UniProt Q9Y2R2); type: functional
T3 sequence (Q9Y2R2 whole entry): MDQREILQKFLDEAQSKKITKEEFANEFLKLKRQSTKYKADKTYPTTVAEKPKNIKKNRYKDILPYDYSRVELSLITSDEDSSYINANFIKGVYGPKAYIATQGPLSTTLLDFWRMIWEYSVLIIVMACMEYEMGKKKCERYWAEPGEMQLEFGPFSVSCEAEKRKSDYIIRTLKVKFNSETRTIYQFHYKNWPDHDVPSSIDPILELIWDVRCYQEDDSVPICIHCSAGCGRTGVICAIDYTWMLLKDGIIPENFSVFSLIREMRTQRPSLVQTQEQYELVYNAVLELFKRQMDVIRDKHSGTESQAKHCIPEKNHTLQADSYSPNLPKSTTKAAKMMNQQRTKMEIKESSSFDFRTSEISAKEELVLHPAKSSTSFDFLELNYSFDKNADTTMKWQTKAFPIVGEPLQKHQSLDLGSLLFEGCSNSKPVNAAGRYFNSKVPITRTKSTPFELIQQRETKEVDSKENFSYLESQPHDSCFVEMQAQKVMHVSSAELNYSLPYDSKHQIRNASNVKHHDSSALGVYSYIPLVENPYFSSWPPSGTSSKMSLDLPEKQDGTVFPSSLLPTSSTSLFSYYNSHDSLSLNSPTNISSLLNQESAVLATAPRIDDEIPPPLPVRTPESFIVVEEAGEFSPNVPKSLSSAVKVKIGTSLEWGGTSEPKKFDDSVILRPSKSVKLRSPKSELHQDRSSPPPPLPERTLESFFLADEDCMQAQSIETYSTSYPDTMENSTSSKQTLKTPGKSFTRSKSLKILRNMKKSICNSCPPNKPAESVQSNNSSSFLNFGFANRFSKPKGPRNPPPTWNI

[6] = biological target: T3, Tyrosine-protein phosphatase non-receptor type 22; type: functional; remark: listed apart in the source
[7] = biological target: T4, Small ubiquitin-related modifier 1 (Homo sapiens, UniProt P63165); assay: SUMO1 protein interaction blockers, potency – biochemical, fluorescence polarization, uHTS hits, dose response (AID 624382); type: functional; details: read-out: IC50_Mean
T4 sequence (P63165 whole entry): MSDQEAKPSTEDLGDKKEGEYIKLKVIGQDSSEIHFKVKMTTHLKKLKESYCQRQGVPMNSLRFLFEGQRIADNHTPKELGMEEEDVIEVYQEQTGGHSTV

[8] = biological target: T4, Small ubiquitin-related modifier 1; assay: SUMO1 protein-protein binding blockers, potency – biochemical, FRET, dose response (AID 624383); type: functional; details: read-out: IC50_Mean
BJ [9] = assay: BJ-TERT fibroblast viability loss – cell-based, RAS-independent, luminescence, dose response (AID 1933); type: functional; details: Homo sapiens
BJ [10] = assay: cells; type: functional, cell-based; details: Homo sapiens
BJ [11] = assay: BJ-TERT-LT-ST fibroblast viability loss – cell-based, RAS-independent, luminescence, dose response (AID 1935); type: functional; details: Homo sapiens;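 also: BJ fibroblasts immortalized with TERT plus LT and ST oncogenes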
[12] = DRD fibroblast viability loss – cell-based, non-viral oncogenic, luminescence, dose response (AID 1934); type: functional; details: Homo sapiens
[13] = biological target: Neurotensin receptor type 1 (Homo sapiens, UniProt P30989); type: functional;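 also: Image-based confirmatory dose-response assay measuring agonist activity at NTR1; NTR1-expressing U2OS osteosarcoma cells imaged for beta-arrestin GFP spot formation; agonist potency where compounds increase beta-arrestin recruitment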
Sequence of Neurotensin receptor type 1 (P30989 whole entry): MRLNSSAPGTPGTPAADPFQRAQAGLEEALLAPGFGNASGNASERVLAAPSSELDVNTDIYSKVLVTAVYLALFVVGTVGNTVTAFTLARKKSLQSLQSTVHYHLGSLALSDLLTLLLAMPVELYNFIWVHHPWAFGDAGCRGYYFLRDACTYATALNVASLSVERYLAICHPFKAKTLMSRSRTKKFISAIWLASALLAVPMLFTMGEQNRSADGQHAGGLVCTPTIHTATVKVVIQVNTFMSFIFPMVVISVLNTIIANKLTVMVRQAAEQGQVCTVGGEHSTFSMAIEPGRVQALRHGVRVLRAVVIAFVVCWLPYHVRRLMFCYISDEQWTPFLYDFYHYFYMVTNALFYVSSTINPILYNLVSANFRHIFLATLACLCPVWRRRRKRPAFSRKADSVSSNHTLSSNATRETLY

Vero [14] = assay: cells; type: functional, cell-based; details: Chlorocebus sabaeus
Vero [15] = assay: cells; type: functional; details: Chlorocebus sabaeus
Coagulation factor XII = biological target: T5, Coagulation factor XII (Homo sapiens, UniProt P00748); type: functional;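 also: activated factor XIIa alpha cleaving a fluorogenic AMC peptide substrate; inhibitor potency from loss of enzyme activity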
T5 sequence (P00748 whole entry): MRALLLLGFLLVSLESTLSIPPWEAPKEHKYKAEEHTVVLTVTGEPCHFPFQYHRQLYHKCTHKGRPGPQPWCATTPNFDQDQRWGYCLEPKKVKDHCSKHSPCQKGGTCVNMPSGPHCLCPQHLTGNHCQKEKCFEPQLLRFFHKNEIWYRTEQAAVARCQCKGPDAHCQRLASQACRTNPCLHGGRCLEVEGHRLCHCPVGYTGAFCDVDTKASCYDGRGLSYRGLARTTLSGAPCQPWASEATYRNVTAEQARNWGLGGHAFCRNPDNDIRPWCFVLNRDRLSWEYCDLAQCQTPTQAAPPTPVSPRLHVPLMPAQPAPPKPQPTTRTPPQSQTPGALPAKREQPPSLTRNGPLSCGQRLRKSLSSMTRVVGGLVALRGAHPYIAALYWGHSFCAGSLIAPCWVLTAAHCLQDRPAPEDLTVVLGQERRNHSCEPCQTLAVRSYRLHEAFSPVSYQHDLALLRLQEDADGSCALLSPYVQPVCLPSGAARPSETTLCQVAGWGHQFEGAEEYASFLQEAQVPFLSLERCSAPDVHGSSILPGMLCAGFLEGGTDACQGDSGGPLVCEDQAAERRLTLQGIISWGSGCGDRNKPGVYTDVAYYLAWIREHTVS

[16] = biological target: T6, Delta-type opioid receptor (Homo sapiens, UniProt P41143); assay: HTS Image-Based Screen for Antagonists of the DOR Receptor. [Related pubchem assays (depositor defined):AID1777, AID1785, AID1786, AID2133]; type: functional
T6 sequence (P41143 whole entry): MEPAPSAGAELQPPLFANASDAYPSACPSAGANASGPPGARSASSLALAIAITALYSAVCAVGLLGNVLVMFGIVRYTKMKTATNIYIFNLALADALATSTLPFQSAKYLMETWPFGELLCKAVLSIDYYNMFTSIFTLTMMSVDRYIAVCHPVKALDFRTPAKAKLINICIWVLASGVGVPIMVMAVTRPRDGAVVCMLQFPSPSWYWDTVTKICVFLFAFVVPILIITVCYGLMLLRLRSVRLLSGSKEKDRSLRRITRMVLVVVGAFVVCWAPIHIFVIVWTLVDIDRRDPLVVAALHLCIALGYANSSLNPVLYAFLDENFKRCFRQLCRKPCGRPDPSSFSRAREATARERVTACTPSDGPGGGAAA

Mu-type opioid receptor = Mu-type opioid receptor (Homo sapiens, UniProt P35372); assay: HTS Image-Based Screen for Agonists of the MOR Receptor. [Related pubchem assays (depositor defined):AID1777, AID1785, AID1786, AID2133]; type: functional;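 also: imaging of beta-arrestin GFP recruitment into spots after receptor activation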
Sequence of Mu-type opioid receptor (P35372 whole entry): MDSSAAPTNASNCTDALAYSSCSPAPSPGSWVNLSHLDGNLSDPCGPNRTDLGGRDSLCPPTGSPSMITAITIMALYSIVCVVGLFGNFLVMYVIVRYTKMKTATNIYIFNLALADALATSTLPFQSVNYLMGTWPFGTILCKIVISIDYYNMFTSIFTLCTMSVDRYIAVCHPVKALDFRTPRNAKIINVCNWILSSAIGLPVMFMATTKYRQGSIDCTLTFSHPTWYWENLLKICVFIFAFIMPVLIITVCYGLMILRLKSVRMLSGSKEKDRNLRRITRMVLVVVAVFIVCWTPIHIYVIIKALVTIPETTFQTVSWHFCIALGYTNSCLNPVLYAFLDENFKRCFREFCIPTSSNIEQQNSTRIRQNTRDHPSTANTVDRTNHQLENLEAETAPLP

[17] = decrease of insulin promoter-GFP reporter – imaging, high-content screening, mouse beta cells (AID 1628); type: functional; details: MIN6
[18] = tested on: Streptococcus sp. 'group A'; assay: Streptococcus pyogenes SK(-)GAS viability under kanamycin – luminescence, BacTiterGlo, confirmation, counter-screen for streptokinase expression inhibitor project, dose response (AID 1900); type: functional, organism-based
[19] = biological target: T6, Delta-type opioid receptor; assay: HTS Image-Based Screen for Agonists of the DOR Receptor. [Related pubchem assays (depositor defined):AID1777, AID1786, AID2133]; type: functional
[20] = MIN6 cell viability loss – mouse insulinoma, cytotoxicity control, dose response (AID 2122); type: functional;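 also: confirmatory high-throughput counterscreen run to flag cytotoxic compounds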
[21] = M. tuberculosis H37Rv growth inhibitors, H37Rv strain (AID 1626); type: functional
[22] = biological target: T7, Kappa-type opioid receptor (Homo sapiens, UniProt P41145); type: functional
T7 sequence (P41145 whole entry): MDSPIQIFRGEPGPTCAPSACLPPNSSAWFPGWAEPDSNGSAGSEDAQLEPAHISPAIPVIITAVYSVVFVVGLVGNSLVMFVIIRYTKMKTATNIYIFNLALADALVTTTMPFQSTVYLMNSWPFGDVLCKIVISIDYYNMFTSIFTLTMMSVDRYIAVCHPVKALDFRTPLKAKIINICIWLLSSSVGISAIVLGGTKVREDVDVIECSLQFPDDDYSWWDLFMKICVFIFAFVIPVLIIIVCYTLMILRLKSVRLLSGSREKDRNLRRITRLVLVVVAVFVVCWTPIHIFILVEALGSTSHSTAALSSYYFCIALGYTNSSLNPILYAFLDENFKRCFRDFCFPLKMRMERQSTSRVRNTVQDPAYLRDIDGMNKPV

Beta-galactosidase = Beta-galactosidase (Escherichia coli, UniProt Q8VNN2); type: functional
Sequence of Beta-galactosidase (Q8VNN2 whole entry): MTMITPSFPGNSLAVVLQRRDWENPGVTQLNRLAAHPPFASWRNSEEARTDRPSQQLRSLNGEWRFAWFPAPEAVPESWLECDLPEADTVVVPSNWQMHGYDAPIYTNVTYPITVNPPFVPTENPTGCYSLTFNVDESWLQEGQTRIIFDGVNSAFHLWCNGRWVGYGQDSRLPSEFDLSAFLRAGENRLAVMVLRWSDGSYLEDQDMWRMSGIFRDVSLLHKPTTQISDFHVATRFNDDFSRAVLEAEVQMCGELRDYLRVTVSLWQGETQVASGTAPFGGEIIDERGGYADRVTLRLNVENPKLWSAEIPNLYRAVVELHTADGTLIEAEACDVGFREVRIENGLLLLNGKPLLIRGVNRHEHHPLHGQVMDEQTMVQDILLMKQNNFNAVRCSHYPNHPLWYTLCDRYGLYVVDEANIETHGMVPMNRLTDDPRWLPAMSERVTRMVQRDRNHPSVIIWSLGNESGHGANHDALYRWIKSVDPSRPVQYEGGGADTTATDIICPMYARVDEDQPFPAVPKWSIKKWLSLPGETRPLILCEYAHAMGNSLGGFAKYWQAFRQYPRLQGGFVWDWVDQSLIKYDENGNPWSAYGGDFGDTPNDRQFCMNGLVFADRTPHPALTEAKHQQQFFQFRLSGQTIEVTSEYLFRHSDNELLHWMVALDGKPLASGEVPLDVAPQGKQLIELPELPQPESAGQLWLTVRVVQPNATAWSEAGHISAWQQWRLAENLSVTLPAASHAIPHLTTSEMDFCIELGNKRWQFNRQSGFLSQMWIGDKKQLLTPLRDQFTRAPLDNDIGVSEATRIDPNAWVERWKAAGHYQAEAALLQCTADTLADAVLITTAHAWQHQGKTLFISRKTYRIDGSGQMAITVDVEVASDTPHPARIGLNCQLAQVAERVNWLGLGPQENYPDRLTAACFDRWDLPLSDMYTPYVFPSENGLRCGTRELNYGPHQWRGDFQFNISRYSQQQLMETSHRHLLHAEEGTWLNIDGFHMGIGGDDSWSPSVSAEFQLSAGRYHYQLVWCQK

[23] = biological target: T7, Kappa-type opioid receptor; type: functional; remark: listed apart in the source
Streptococcus = assay: GAS UMAA2166 growth inhibition – luminescence, BacTiterGlo, counter-screen for streptokinase expression inhibitor project, dose response (AID 1915); type: functional, organism-based;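 also: potency for reduction of bacterial viability or growth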
INS1 = assay: INS-1E survival protection against cytokine death – cell-based, luminescence, retest, dose response (AID 449756); type: functional; details: Rattus norvegicus;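 also: cell death triggered by IL-1 beta plus TNF-alpha plus IFN-gamma mixture; protective hits raise ATP signal compared with cytokine alone wells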
[24] = reduction of Shn3 3'UTR-driven luciferase in osteoblasts – cell-based, Clone20 osteoblasts, firefly luciferase, cherry-picked, dose response (AID 624132); type: functional;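 also: firefly luciferase luminescence from reporter carrying the Shn3 3'UTR in osteoblasts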
[25] = loss of viability in HepG2 cells – cell-based, CellTiter-Glo, cherry-picked, cytotoxicity control for Shn3 inhibitor project, dose response (AID 624134); type: functional
[26] = non-specific 3'UTR reporter inhibition in Clone20-Shn3RL – cell-based, Renilla luciferase, cherry-picked, counter-screen for Shn3 inhibitor project, dose response (AID 624133); type: functional

Sequence of SUMO E1/E2 (Q9UBE0 whole entry): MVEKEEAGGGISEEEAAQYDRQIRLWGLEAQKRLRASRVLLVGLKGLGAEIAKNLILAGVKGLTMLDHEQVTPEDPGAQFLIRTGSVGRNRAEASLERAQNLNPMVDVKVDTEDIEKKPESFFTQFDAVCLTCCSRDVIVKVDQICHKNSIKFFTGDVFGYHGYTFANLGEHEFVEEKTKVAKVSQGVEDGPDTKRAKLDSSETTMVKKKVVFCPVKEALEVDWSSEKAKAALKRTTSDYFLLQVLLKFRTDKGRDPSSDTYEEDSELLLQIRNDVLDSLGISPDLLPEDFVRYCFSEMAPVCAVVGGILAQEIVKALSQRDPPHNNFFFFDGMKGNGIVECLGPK
Sequence of SUMO E1/E2 (Q9UBT2 whole entry): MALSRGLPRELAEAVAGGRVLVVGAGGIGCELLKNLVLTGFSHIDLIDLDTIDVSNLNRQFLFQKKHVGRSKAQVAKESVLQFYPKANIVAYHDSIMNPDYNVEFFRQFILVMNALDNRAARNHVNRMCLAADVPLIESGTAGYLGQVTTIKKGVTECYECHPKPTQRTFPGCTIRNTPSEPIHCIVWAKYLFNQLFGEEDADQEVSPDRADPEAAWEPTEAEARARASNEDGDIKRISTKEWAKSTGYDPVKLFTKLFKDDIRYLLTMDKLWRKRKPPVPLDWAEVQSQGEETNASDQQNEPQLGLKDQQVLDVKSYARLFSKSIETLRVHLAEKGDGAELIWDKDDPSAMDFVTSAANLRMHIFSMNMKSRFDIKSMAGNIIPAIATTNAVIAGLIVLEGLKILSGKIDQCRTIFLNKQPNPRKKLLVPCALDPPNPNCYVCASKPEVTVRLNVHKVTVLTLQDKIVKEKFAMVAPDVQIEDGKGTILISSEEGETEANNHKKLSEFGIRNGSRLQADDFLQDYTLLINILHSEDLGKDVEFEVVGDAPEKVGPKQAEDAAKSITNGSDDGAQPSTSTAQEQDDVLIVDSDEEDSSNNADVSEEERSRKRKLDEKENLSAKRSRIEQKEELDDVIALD
Sequence of SUMO E1/E2 (P63279 whole entry): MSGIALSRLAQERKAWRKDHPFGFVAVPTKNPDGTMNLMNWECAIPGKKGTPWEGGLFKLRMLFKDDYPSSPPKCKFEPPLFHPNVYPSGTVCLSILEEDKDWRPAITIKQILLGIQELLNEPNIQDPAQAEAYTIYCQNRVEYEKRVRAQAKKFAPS

Which IC50 (SUMO E1/E2) does the source give for `Clc1ccc2c(c1)C1C=CCC1C(c1ccccc1)N2` (stereo not given) here?
The IC50 was > 100 µM (inactive).

Which EC50 [1] does the source give for `COc1ccc(-c2n(CC(=O)OC3CC(C)CCC3C(C)C)c3ccccc3[n+]2C)cc1` (stereo not given) here?
Its EC50 is > 32 µM (inactive).

With `CC(C)(C)C(=O)C(Cl)C(=O)Nc1ccccc1` (stereo not given) as the compound, how does the IC50 [2] read?
The IC50 was 696 nM (active).

What about the AC50 [3] of the same compound?
Its AC50 is 1.05 µM (active).

Which IC50 [4] does the source give for `CC(=O)c1ccc2c(c1)C1C(Cl)C(Sc3ccccc3[N+](=O)[O-])CC1C(C(=O)O)N2` (stereo not given) here?
The IC50 was 58.2 µM (active).

And the IC50 [5]?
The IC50 was 32 µM (active).

And the IC50 [6]?
The IC50 was 57.9 µM (active).

And the IC50 [7]?
Its IC50 is > 66.6 µM (inactive).

What about the IC50 [8] of the same compound?
Its IC50 is 13.2 µM (active).

With `COc1ccc2c(-c3ccccc3)cc(N3CCOCC3)nc2c1` as the compound, how does the IC50 [4] read?
Its IC50 is > 79.4 µM (inactive).

What about the IC50 [5] of the same compound?
The IC50 was > 79.4 µM (inactive).

And the IC50 [6]?
Its IC50 is > 79.4 µM (inactive).

With `CCN(CC)c1ccc(C=C2C(=O)NC(=S)NC2=O)cc1` as the compound, how does the EC50 (BJ [9]) read?
Its EC50 is 13.5 µM (active).

And the EC50 (BJ [10])?
The EC50 was 15.9 µM (active).

What about the EC50 (BJ [11]) of the same compound?
Its EC50 is > 75 µM (inconclusive).

And the EC50 [12]?
The EC50 was 10.8 µM (active).

And the EC50 [13]?
Its EC50 is 3.91 µM (active).

And the IC50 (Vero [14])?
The IC50 was > 25 µM (active).

And the CC50 (Vero [15])?
Its CC50 is 13.9 µM (active).

Which IC50 (Coagulation factor XII) does the source give for `CNC(=O)COC(=O)c1cc(-c2ccco2)nc2ccccc12` here?
The IC50 was > 50 µM (inactive).

With `CCc1nnc(NC(=O)c2cccc(C(=O)Nc3nnc(CC)s3)n2)s1` as the compound, how does the IC50 [16] read?
The IC50 was > 32 µM (inactive).

What about the EC50 (Mu-type opioid receptor) of the same compound?
The EC50 was > 32 µM (inactive).

What about the IC50 [17] of the same compound?
The IC50 was 666 nM (active).

And the EC50 [18]?
The EC50 was 829 nM (active).

What about the EC50 [19] of the same compound?
The EC50 was > 32 µM (inactive).

And the IC50 [20]?
Its IC50 is 568 nM (active).

What about the IC50 [21] of the same compound?
Its IC50 is 100 µM (active).

What about the IC50 [22] of the same compound?
Its IC50 is 5 µM (inactive).

What about the EC50 (Beta-galactosidase) of the same compound?
The EC50 was > 31.5 µM (inactive).

And the IC50 [23]?
The IC50 was greater than 32 µM.

What about the EC50 (Streptococcus) of the same compound?
Its EC50 is 3.5 µM (active).

What about the AC50 (INS1) of the same compound?
The AC50 was 678 nM (active).

What about the AC50 [24] of the same compound?
The AC50 was 1.45 µM (active).

What about the AC50 [25] of the same compound?
Its AC50 is 5.56 µM (active).

And the AC50 [26]?
The AC50 was 573 nM (active).
